Laboratory results from US10667517B2, “2-(Het)aryl-substituted fused heterocycle derivatives as pesticides” (BAYER CROPSCIENCE AKTIENGESELLSCHSAFT, priority 2015, dated 2020).

Key:
Phaedon cochleariae = Phaedon cochleariae - spray test; assay type: in vivo; settings: application rate 500 g/ha, mustard beetle larvae on Chinese cabbage leaf discs, after 7 days; for pest or weed control at 500 g/ha: Phaedon cochleariae, foliar, 168 h, read-out: efficacy
Protocol: Phaedon cochleariae—Spray Test
(§1) • Solvent: 78.0 parts by weight of acetone • 1.5 parts by weight of dimethylformamide • Emulsifier: alkylaryl polyglycol ether
(§2) To produce a suitable active compound preparation, 1 part by weight of active compound is dissolved with the stated parts by weight of solvent and made up with water containing an emulsifier concentration of 1000 ppm until the desired concentration is attained. To produce further test concentrations, the preparation is diluted with emulsifier-containing water.
After 7 days, the efficacy in % is determined. 100% means that all the beetle larvae have been killed; 0% means that no beetle larvae have been killed.

Spodoptera frugiperda = Spodoptera frugiperda - spray test; assay type: in vivo; settings: application rate 500 g/ha; armyworm caterpillars on maize leaf discs; after 7 days
Protocol: Spodoptera frugiperda—Spray Test
as §1, §2
Leaf discs of maize (Zea mays) are sprayed with an active compound preparation of the desired concentration and, after drying, populated with caterpillars of the armyworm (Spodoptera frugiperda).
After 7 days, the efficacy in % is determined. 100% means that all the caterpillars have been killed; 0% means that no caterpillars have been killed.

Musca domestica = Musca domestica test; assay type: in vivo; settings: application rate 100 ppm; adult houseflies, sponge with sugar solution; after 2 days
Protocol: Musca domestica Test • Solvent: dimethyl sulphoxide To produce a suitable active compound preparation, 10 mg of active compound are mixed with 0.5 ml of dimethyl sulphoxide, and the concentrate is diluted with water to the desired concentration. Vessels containing a sponge treated with sugar solution and the active compound preparation of the desired concentration are populated with 10 adult houseflies (Musca domestica). After 2 days, the kill in % is determined. 100% means that all of the flies have been killed; 0% means that none of the flies have been killed.

Myzus persicae = Myzus persicae - spray test; assay type: in vivo; settings: application rate 500 g/ha; all stages of green peach aphid on Chinese cabbage leaf discs; after 5-6 days
Protocol: Myzus persicae—Spray Test
• Solvent: 78 parts by weight of acetone • 1.5 parts by weight of dimethylformamide • Emulsifier: alkylaryl polyglycol ether
as §2
Discs of Chinese cabbage leaves (Brassica pekinensis) infested by all stages of the green peach aphid (Myzus persicae) are sprayed with an active compound preparation of the desired concentration.
After 5-6 days, the efficacy in % is determined. 100% means that all the aphids have been killed; 0% means that no aphids have been killed.

[1] = log P (neutral), HPLC on reversed-phase column (C 18), LC-MS neutral range; assay type: physicochemical; settings: pH 7.8, ammonium hydrogencarbonate/acetonitrile; for chromatographic logP: reversed-phase HPLC column (C 18), pH 7.8, HPLC reversed-phase C 18, 55° C.; for log P (neutral): HPLC reversed-phase C 18, 55° C.
Protocol: Temperature: 55° C. […] Called log P (neutral) in the table.

Lucilia cuprina = Lucilia cuprina test; assay type: in vivo; settings: application rate 100 ppm; L1 larvae in minced horsemeat; after 2 days
Protocol: Lucilia cuprina Test • Solvent: dimethyl sulphoxide To produce a suitable active compound preparation, 10 mg of active compound are mixed with 0.5 ml of dimethyl sulphoxide, and the concentrate is diluted with water to the desired concentration. About 20 L1 larvae of the Australian sheep blowfly (Lucilia cuprina) are transferred into a test vessel containing minced horsemeat and the active compound preparation of the desired concentration. After 2 days, the kill in % is determined. 100% means that all the larvae have been killed; 0% means that no larvae have been killed.

Ctenocephalides felis [2] = assay: Ctenocephalides felis - in vitro contact tests with adult cat fleas; assay type: in vivo; settings: application rate 5 μg/cm^2 (500 g/ha); adult cat fleas in coated tubes; after 48 h; dead or moribund
Protocol: Ctenocephalides felis—In Vitro Contact Tests with Adult Cat Fleas
(§3) For the coating of the test tubes, 9 mg of active compound are first dissolved in 1 ml of acetone p.a. and then diluted to the desired concentration with acetone p.a. 250 μl of the solution are distributed homogeneously on the inner walls and the base of a 25 ml test tube by turning and rocking on an orbital shaker (rocking rotation at 30 rpm for 2 h). With 900 ppm active compound solution and internal surface 44.7 cm^2, given homogeneous distribution, an area-based dose of 5 μg/cm^2 is achieved.
After the solvent has evaporated off, the tubes are populated with 5-10 adult cat fleas (Ctenocephalides felis), sealed with a perforated plastic lid and incubated in a horizontal position at room temperature and ambient humidity. After 48 h, efficacy is determined. To this end, the test tubes are stood upright and the fleas are knocked to the base of the tube. Fleas which remain motionless at the base or move in an uncoordinated manner are considered to be dead or moribund.
100% efficacy means that all the fleas were dead or moribund. 0% efficacy means that no fleas were harmed.

Ctenocephalides felis [3] = assay: Ctenocephalides felis - oral test; assay type: in vivo; settings: application rate 100 ppm in citrated cattle blood; adult cat fleas; after 2 days
Protocol: Ctenocephalides felis—Oral Test • Solvent: dimethyl sulphoxide To produce a suitable active compound preparation, 10 mg of active compound are mixed with 0.5 ml of dimethyl sulphoxide. Dilution with citrated cattle blood gives the desired concentration. About 20 unfed adult cat fleas (Ctenocephalides felis) are placed into a chamber which is closed at the top and bottom with gauze. A metal cylinder whose bottom end is closed with parafilm is placed onto the chamber. The cylinder contains the blood/active compound preparation, which can be imbibed by the fleas through the parafilm membrane. After 2 days, the kill in % is determined. 100% means that all of the fleas have been killed; 0% means that none of the fleas have been killed.

Meloidogyne incognita = Meloidogyne incognita test; assay type: in vivo; settings: application rate 20 ppm; egg/larvae suspension with lettuce seeds in sand; formation of galls after 14 days
Protocol: Meloidogyne incognita Test • Solvent: 125.0 parts by weight of acetone To produce a suitable preparation of active compound, 1 part by weight of active compound is mixed with the stated amount of solvent and the concentrate is diluted with water to the desired concentration. Vessels are filled with sand, active compound solution, an egg/larvae suspension of the southern root-knot nematode (Meloidogyne incognita) and lettuce seeds. The lettuce seeds germinate and the plants develop. The galls develop on the roots. After 14 days, the nematicidal efficacy in % is determined by the formation of galls. 100% means that no galls were found; 0% means that the number of galls on the treated plants corresponds to the untreated control.

Rhipicephalus sanguineus = Rhipicephalus sanguineus - in vitro contact tests with adult brown dog ticks; assay type: in vivo; settings: application rate 5 μg/cm^2 (500 g/ha); adult brown dog ticks in coated tubes; after 48 h; dead or moribund
Protocol: Rhipicephalus sanguineus—In Vitro Contact Tests with Adult Brown Dog Ticks
as §3
After the solvent has evaporated off, the tubes are populated with 5-10 adult dog ticks (Rhipicephalus sanguineus), sealed with a perforated plastic lid and incubated in a horizontal position in the dark at room temperature and ambient humidity. After 48 h, efficacy is determined. To this end, the ticks are knocked to the base of the tube and incubated on a hotplate at 45-50° C. for not more than 5 min. Ticks which remain motionless on the base or move in such an uncoordinated manner that they are unable to deliberately avoid the heat by climbing upwards are considered to be dead or moribund.
An efficacy of 100% means that all the ticks were dead or moribund. 0% efficacy means that none of the ticks were harmed.

Tetranychus urticae = Tetranychus urticae - spray test, OP-resistant; assay type: in vivo; settings: application rate 500 g/ha; all stages of greenhouse red spider mite on bean leaf discs; after 6 days
Protocol: Tetranychus urticae—Spray Test, OP-Resistant
as §1, §2
Discs of bean leaves (Phaseolus vulgaris) infested with all stages of the greenhouse red spider mite (Tetranychus urticae) are sprayed with an active compound preparation of the desired concentration.
After 6 days, the efficacy in % is determined. 100% means that all the spider mites have been killed; 0% means that no spider mites have been killed.

Boophilus microplus = Boophilus microplus - injection test; assay type: in vivo; settings: application rate 20 μg/animal; injected into engorged adult female cattle ticks; laying of fertile eggs after 7 days
Protocol: Boophilus microplus—Injection Test
• Solvent: dimethyl sulphoxide
To produce a suitable active compound preparation, 10 mg of active compound are mixed with 0.5 ml of solvent and the concentrate is diluted with solvent to the desired concentration. 1 μl of the active compound solution is injected into the abdomen of 5 engorged adult female cattle ticks (Boophilus microplus). The animals are transferred into dishes and kept in a climate-controlled room.
Efficacy is assessed after 7 days by laying of fertile eggs. Eggs which are not visibly fertile are stored in a climate-controlled cabinet until the larvae hatch after about 42 days. An efficacy of 100% means that none of the ticks has laid any fertile eggs; 0% means that all the eggs are fertile.

Q: For CCS(=O)(=O)c1ccc(NC(C)=O)nc1-c1nc2cc(C(F)(F)F)ccc2n1C [Example I-2, N-{5-(Ethylsulphonyl)-6-[1-methyl-5-(trifluoromethyl)-1H-benzimidazol-2-yl]pyridin-2-yl}acetamide], which pest or weed control at 500 g/ha (Phaedon cochleariae) is on record?
A: 100%

Q: What about the efficacy (Spodoptera frugiperda) of the same compound?
A: 100%

Q: What about the “efficacy (kill)” value (Musca domestica) of the same compound?
A: 90%

Q: What about the efficacy (Myzus persicae) of the same compound?
A: 100%

Q: What about the chromatographic logP [1] of the same compound?
A: 2.5

Q: What about the “efficacy (kill)” value (Lucilia cuprina) of the same compound?
A: 100%

Q: What about the efficacy (Ctenocephalides felis [2]) of the same compound?
A: 100%

Q: What about the “efficacy (kill)” value (Ctenocephalides felis [3]) of the same compound?
A: 95%

Q: What does the source list for CCS(=O)(=O)c1ccc(NC(=O)C(F)(F)F)nc1-c1nc2cc(C(F)(F)F)cnc2n1C [Example I-15]?
A: efficacy (Phaedon cochleariae): 100%; efficacy (Spodoptera frugiperda): 83%; efficacy (Myzus persicae): 100%; log P (neutral) [1]: 2.00; nematicidal efficacy (Meloidogyne incognita): 90%

Q: What does the source list for CCS(=O)(=O)c1ccc(NC(=O)C(C)CS(C)(=O)=O)nc1-c1nc2cc(C(F)(F)F)cnc2n1C (stereo not shown) [Example I-21]?
A: efficacy (Phaedon cochleariae): 100%; efficacy (Myzus persicae): 90%; log P (neutral) [1]: 2.31; nematicidal efficacy (Meloidogyne incognita): 90%

Q: Which efficacy (Phaedon cochleariae) does the source give for CCS(=O)(=O)c1ccc(NC(=O)C(F)(F)F)nc1-c1nc2cc(C(F)(F)F)ccc2n1C [Example I-11] here?
A: 100%

Q: And the efficacy (Myzus persicae)?
A: 90%

Q: And the “log P (neutral)” value [1]?
A: 3.27

Q: What about the “efficacy (kill)” value (Lucilia cuprina) of the same compound?
A: 100%

Q: And the efficacy (Rhipicephalus sanguineus)?
A: 80%

Q: What about the efficacy (Ctenocephalides felis [2]) of the same compound?
A: 100%

Q: What about the “efficacy (kill)” value (Ctenocephalides felis [3]) of the same compound?
A: 100%

Q: For CCS(=O)(=O)c1ccc(N)nc1-c1nc2cc3c(cc2n1C)OC(F)(F)O3 [Example I-8, 6-(2,2-Difluoro-7-methyl-[1,3]dioxolo[4,5-f]benzimidazol-6-yl)-5-ethylsulphonylpyridin-2-amine], which pest or weed control at 500 g/ha (Phaedon cochleariae) is on record?
A: 100%

Q: What about the efficacy (Spodoptera frugiperda) of the same compound?
A: 100%

Q: What about the efficacy (Myzus persicae) of the same compound?
A: 90%

Q: What about the chromatographic logP [1] of the same compound?
A: 2.1

Q: What about the efficacy (Tetranychus urticae) of the same compound?
A: 90%

Q: With CCS(=O)(=O)c1ccc(-n2cncn2)nc1-c1nc2cc(C(F)(F)F)cnc2n1C [Example I-22] as the compound, how does the efficacy (Phaedon cochleariae) read?
A: 100%

Q: What about the efficacy (Spodoptera frugiperda) of the same compound?
A: 100%

Q: And the efficacy (Myzus persicae)?
A: 100%

Q: What about the efficacy (Boophilus microplus) of the same compound?
A: 80%

Q: And the “efficacy (kill)” value (Lucilia cuprina)?
A: 100%

Q: What about the efficacy (Ctenocephalides felis [2]) of the same compound?
A: 100%

Q: What about the “efficacy (kill)” value (Ctenocephalides felis [3]) of the same compound?
A: 100%

Q: For CCS(=O)(=O)c1ccc(N)nc1-c1nc2cc(C(F)(F)F)cnc2n1C [Example I-6, 5-(Ethylsulphonyl)-6-[3-methyl-6-(trifluoromethyl)-3H-imidazo[4,5-b]pyridin-2-yl]pyridin-2-amine], which pest or weed control at 500 g/ha (Phaedon cochleariae) is on record?
A: 100%

Q: And the efficacy (Myzus persicae)?
A: 90%

Q: And the chromatographic logP [1]?
A: 2.02

Q: And the nematicidal efficacy (Meloidogyne incognita)?
A: 90%
